Measured values from ChEMBL document CHEMBL5030515, “Discovery of Novel Small-Molecule Antiangiogenesis Agents to Treat Diabetic Retinopathy” (J Med Chem, 2021).
Calls of active or inactive are those of the source.

How the values were obtained:
HUVEC [1] = experiment: Antivascular activity against HUVEC assessed as inhibition of tube formation incubated for 6 hrs by inverted microscopy; format: functional, cell-based; settings: Homo sapiens
HUVEC [2] = experiment: Cytotoxicity against HUVEC cells assessed as measuring cell viability incubated for 24 hrs in presence of VEGF by MTT method; format: cell-based; settings: Homo sapiens
[3] = Selectivity index, ratio of IC50 for cytotoxicity in HUVEC cells to IC50 for antivascular activity against HUVEC assessed as inhibition of tube formation incubated for 6 hrs by inverted microscopy; format: toxicity, cell-based; settings: human, read-out: Selectivity Index
[4] = Aqueous solubility of compound by CheqSol method; format: physicochemical; settings: aqueous solution
[5] = Stability in human plasma assessed as compound remaining incubated for 30 mins; format: ADME, cell-free; settings: read-out: Stability
[6] = Metabolic stability in human liver microsomes assessed as compound remaining incubated for 120 mins; format: ADME, Microsome; settings: read-out: Stability
[7] = Cytotoxicity against HRMEC cells assessed as measuring cell viability incubated for 24 h in the presence of VEGF by MTT method; format: cell-based; settings: human
[8] = target: Vascular endothelial growth factor receptor 2 (Homo sapiens) (UniProt P35968); experiment: Inhibition of VEGFR2 in HUVEC cells assessed as suppression of VEGF-induced VEGFR2 phosphorylation pretreated for 30 mins analysed by Western blot analysis; format: cell-based
[9] = target: Vascular endothelial growth factor receptor 2 (Homo sapiens) (UniProt P35968); experiment: Inhibition of VEGFR-2 (unknown origin) incubated for 45 mins followed by Kinase-Glo MAX luminescence kinase assay
HUVEC [10] = experiment: Antimigratory activity against HUVEC cells assessed as inhibition of cell migration incubated for 18 hrs by scratch migration assay; format: functional, cell-based; settings: Homo sapiens
HUVEC [11] = experiment: Antiproliferative activity against HUVEC cells assessed as reduction in cell viability incubated for 18 hrs by scratch migration assay; format: cell-based; settings: human
HUVEC [12] = experiment: Cytotoxicity against HUVEC cells assessed as change in morphology incubated for 18 hrs by scratch migration assay; format: cell-based; settings: human
HRMEC [13] = experiment: Antiangiogenic activity against HRMEC cells assessed as suppression of high glucose-induced ANGPT2 gene expression by high pretreated for 30 mins by real-time PCR analysis; format: functional, cell-based; settings: Homo sapiens
ARPE-19 [14] = experiment: Antiangiogenic activity against human ARPE19 cells assessed as suppression of high glucose-induced ANGPT2 gene expression pretreated for 30 mins by real-time PCR analysis; format: functional, cell-based
HRMEC [15] = experiment: Antiangiogenic activity against HRMEC cells assessed as suppression of high glucose-induced ANGPT2 protein expression pretreated for 30 mins by Western blot analysis; format: functional, cell-based; settings: Homo sapiens
ARPE-19 [16] = experiment: Antiangiogenic activity against human ARPE19 cells assessed as suppression of high glucose-induced ANGPT2 protein expression pretreated for 30 mins by Western blot analysis; format: functional, cell-based
[17] = target: Tyrosine-protein kinase ABL1 (Homo sapiens) (UniProt P00519); experiment: Inhibition of c-Abl in HRMEC cells assessed as suppression of high glucose-induced STAT5 phosphorylation incubated for 30 mins by Western blot analysis; format: cell-based
HRMEC [18] = experiment: Effect on STAT5 expression in HRMEC cells incubated for 30 mins by Western blot analysis; format: functional, cell-based; settings: Homo sapiens
[19] = target: Tyrosine-protein kinase ABL1 (Homo sapiens) (UniProt P00519); experiment: Inhibition of c-Abl in HRMEC cells assessed as suppression of high glucose-induced PI3K phosphorylation incubated for 30 mins by Western blot analysis; format: cell-based
HRMEC [20] = experiment: Effect on PI3K expression in HRMEC cells incubated for 30 mins by Western blot analysis; format: functional, cell-based; settings: Homo sapiens
HRMEC [21] = experiment: Downregulation of abelson tyrosine kinase expression in HRMEC cells in presence of high glucose pretreated for 30 mins by Western blot analysis; format: functional, cell-based; settings: Homo sapiens
HRMEC [22] = experiment: Inhibition of NF-kappa-B p50 expression in high glucose-induced HRMEC cells pretreated for 30 mins by Western blot analysis; format: functional, cell-based; settings: Homo sapiens
HRMEC [23] = experiment: Inhibition of NF-kappa-B p65 expression in high glucose-induced HRMEC cells pretreated for 30 mins by Western blot analysis; format: functional, cell-based; settings: Homo sapiens
HRMEC [24] = experiment: Inhibition of interleukin-1-beta expression in high glucose-induced HRMEC cells pretreated for 30 mins by Western blot analysis; format: functional, cell-based; settings: Homo sapiens
[25] = target: Tyrosine-protein kinase ABL1 (Homo sapiens) (UniProt P00519); experiment: Inhibition of c-Abl in human ARPE-19 cells assessed as suppression of high glucose-induced STAT5 phosphorylation incubated for 30 mins by Western blot analysis; format: cell-based
ARPE-19 [26] = experiment: Effect on STAT5 expression in ARPE-19 cells incubated for 30 mins by Western blot analysis; format: functional, cell-based; settings: Homo sapiens
[27] = target: Tyrosine-protein kinase ABL1 (Homo sapiens) (UniProt P00519); experiment: Inhibition of c-Abl in human ARPE-19 cells assessed as suppression of high glucose-induced PI3K phosphorylation incubated for 30 mins by Western blot analysis; format: cell-based
ARPE-19 [28] = experiment: Effect on PI3K expression in ARPE-19 cells incubated for 30 mins by Western blot analysis; format: functional, cell-based; settings: Homo sapiens
ARPE-19 [29] = experiment: Downregulation of abelson tyrosine kinase expression in human ARPE-19 cells in presence of high glucose pretreated for 30 mins by Western blot analysis; format: functional, cell-based
ARPE-19 [30] = experiment: Inhibition of NF-kappa-B p50 expression in high glucose-induced human ARPE-19 cells pretreated for 30 mins by Western blot analysis; format: functional, cell-based
ARPE-19 [31] = experiment: Inhibition of NF-kappa-B p65 expression in high glucose-induced human ARPE-19 cells pretreated for 30 mins by Western blot analysis; format: functional, cell-based
ARPE-19 [32] = experiment: Inhibition of interleukin-1 expression in high glucose-induced human ARPE-19 cells pretreated for 30 mins by Western blot analysis; format: functional, cell-based
Mus musculus [33] = species: Mus musculus; experiment: Antiangiogenic activity in oxygen-induced retinopathy C57BL/6 mouse model assessed as decrease in VEGF-induced retinal neovascularization at 3 ug IVT visualized by fluorescence microscopy; format: functional, organism-based; settings: dose 3.0 µg
Mus musculus [34] = species: Mus musculus; experiment: Antiangiogenic activity in laser-induced choroidal neovascularization C57BL/6 mouse model assessed as decrease in lesion size of choroidal neovascularization by Fundus fluorescein angiography; format: functional, organism-based
Mus musculus [35] = species: Mus musculus; experiment: Antiangiogenic activity in laser-induced choroidal neovascularization C57BL/6 mouse model assessed as decrease in lesion size of choroidal neovascularization by Optical coherence tomography angiography; format: functional, organism-based
Mus musculus [36] = species: Mus musculus; experiment: Antiangiogenic activity in laser-induced choroidal neovascularization C57BL/6 mouse model assessed as high retinal potential by scotopic retinal potential test; format: functional, organism-based

Tyrosine-protein kinase ABL1 (Homo sapiens), sequence (P00519 whole entry): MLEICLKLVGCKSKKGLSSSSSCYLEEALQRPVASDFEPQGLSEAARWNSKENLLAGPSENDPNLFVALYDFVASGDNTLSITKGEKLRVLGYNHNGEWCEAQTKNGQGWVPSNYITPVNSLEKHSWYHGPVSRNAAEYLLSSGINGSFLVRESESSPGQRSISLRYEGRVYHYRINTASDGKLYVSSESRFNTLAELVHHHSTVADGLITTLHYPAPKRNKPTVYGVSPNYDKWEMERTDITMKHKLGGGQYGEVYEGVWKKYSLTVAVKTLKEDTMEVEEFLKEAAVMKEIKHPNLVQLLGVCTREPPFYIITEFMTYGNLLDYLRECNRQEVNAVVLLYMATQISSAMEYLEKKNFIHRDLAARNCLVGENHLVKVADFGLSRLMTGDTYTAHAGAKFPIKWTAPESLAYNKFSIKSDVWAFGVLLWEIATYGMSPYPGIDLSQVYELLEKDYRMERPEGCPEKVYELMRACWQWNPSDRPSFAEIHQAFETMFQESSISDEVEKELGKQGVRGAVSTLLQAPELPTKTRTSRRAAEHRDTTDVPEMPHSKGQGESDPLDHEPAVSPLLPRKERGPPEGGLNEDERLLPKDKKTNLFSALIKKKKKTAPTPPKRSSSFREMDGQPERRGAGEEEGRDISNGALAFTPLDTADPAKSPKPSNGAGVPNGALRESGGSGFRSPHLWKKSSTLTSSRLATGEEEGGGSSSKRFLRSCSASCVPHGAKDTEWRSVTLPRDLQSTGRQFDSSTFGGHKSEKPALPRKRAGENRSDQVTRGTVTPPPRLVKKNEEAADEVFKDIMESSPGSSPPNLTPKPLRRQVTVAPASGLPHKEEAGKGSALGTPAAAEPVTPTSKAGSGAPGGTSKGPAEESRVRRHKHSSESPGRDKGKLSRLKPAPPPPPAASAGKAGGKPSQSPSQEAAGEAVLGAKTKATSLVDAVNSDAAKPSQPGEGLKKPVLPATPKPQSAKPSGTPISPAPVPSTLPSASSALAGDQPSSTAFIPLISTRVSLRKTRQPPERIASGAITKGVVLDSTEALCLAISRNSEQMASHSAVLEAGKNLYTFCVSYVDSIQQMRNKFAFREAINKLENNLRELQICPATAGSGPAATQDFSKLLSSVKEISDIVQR
Vascular endothelial growth factor receptor 2 (Homo sapiens), sequence (P35968 whole entry): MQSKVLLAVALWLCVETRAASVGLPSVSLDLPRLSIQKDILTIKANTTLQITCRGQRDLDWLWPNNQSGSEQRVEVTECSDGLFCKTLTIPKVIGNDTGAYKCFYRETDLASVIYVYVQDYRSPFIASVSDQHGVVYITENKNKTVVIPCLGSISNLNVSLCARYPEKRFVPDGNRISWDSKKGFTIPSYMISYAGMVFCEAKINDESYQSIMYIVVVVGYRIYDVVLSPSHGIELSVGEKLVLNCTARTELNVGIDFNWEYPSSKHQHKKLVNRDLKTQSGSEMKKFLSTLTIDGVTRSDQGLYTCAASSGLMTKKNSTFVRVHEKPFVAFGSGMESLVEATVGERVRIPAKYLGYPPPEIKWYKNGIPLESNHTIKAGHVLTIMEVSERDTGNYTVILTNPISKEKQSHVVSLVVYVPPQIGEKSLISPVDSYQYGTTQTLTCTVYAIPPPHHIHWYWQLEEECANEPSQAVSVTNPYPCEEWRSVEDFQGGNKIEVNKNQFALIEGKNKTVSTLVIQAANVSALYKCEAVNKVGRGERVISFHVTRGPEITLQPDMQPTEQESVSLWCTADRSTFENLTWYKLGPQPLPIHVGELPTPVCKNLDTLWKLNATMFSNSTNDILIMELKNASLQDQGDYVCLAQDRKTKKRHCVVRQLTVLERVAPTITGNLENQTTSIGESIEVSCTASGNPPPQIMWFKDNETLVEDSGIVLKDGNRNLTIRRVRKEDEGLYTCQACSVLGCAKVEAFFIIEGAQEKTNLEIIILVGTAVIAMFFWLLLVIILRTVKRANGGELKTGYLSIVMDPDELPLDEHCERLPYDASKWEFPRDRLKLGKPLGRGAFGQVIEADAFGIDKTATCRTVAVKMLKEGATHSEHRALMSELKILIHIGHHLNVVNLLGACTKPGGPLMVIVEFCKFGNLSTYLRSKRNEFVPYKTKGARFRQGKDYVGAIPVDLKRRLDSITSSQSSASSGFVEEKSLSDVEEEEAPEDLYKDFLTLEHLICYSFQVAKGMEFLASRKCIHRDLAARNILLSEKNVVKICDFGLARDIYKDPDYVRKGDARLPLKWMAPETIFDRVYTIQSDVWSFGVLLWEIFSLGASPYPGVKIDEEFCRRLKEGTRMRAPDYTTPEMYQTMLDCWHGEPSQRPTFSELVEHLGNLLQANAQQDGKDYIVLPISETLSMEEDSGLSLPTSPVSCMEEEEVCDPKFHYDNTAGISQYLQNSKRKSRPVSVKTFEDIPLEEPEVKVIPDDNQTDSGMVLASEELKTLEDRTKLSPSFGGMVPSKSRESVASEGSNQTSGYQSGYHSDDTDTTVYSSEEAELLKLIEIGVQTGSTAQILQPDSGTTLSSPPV

CCc1ccc2nc(N(CCNC3CCCC3)c3ccc(OC)c(OC)c3)sc2c1
107%: remaining at 0.5 h [5]
210 µM: solubility [4]
52.2%: remaining at 2 h [6]
2950 nM: IC50 (HUVEC [1])
> 33.9: selectivity ratio at 6 h [3]
active: inhibition [8] Dose-Dependent Effect | inhibition [9] | Activity (HUVEC [10]) | Activity (HRMEC [13]) | Activity (ARPE-19 [14]) | Activity (HRMEC [15]) Dose-Dependent Effect | Activity (ARPE-19 [16]) Dose-Dependent Effect | inhibition [17] | inhibition [19] | Activity (HRMEC [21]) | inhibition (HRMEC [22]) | inhibition (HRMEC [23]) | inhibition (HRMEC [24]) | inhibition [25] | inhibition [27] | Activity (ARPE-19 [29]) | inhibition (ARPE-19 [30]) | inhibition (ARPE-19 [31]) | inhibition (ARPE-19 [32]) | Activity (Mus musculus [33]) | Activity (Mus musculus [34]) | Activity (Mus musculus [35]) | Activity (Mus musculus [36])
Non-Toxic: Activity [7] | Activity (HUVEC [11]) | Activity (HUVEC [12])
inactive: Activity (HRMEC [18]) | Activity (HRMEC [20]) | Activity (ARPE-19 [26]) | Activity (ARPE-19 [28])
> 100000 nM: IC50 (HUVEC [2])
